This passage reports IC50 results from ChEMBL document CHEMBL1150411, “4-(Phenylaminomethylene)isoquinoline-1,3(2H,4H)-diones as potent and selective inhibitors of the cyclin-dependent kinase 4 (CDK4)” (J Med Chem, 2008).

The target in assay [1] is Cyclin-dependent kinase 1/cyclin B1 (Homo sapiens, UniProt P06493). Briefly: Inhibition of CDK1/Cyclin B1 expressed in Sf9 cells-baculovirus system assessed as retinoblastoma susceptibility gene product phosphorylation.
In assay [2] the target is Cyclin-dependent kinase 2 (Homo sapiens, UniProt P24941). Briefly: Inhibition of CDK2/cyclin E expressed in Sf9 cells-baculovirus system assessed as retinoblastoma susceptibility gene product phosphorylation.
Assay [3] deals with Cyclin-dependent kinase 4/cyclin D1 (Homo sapiens, UniProt P11802). Briefly: Inhibition of CDK4/cyclin D1 expressed in Sf9 cells-baculovirus system assessed as retinoblastoma susceptibility gene product phosphorylation.
For assay [4], the system named is MCF7. Briefly: Antiproliferative activity against human MCF7 cells by SRB method. Format: functional, cell-based.
Assay [5] has as its system HCT-116. Kind of assay: Antiproliferative activity against human HCT116 cells by SRB method. Format: functional, cell-based.

Chain of Cyclin-dependent kinase 4/cyclin D1 (P11802 whole entry): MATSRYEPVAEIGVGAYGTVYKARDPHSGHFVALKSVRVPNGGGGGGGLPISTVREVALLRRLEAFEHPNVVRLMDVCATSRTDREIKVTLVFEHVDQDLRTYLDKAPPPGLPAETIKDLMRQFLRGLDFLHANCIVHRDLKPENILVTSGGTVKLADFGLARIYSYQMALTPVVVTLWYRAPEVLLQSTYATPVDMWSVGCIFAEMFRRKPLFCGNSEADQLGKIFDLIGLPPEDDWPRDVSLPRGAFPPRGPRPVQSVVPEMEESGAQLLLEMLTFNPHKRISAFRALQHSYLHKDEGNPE
Chain of Cyclin-dependent kinase 4/cyclin D1 (P24385 whole entry, further chain): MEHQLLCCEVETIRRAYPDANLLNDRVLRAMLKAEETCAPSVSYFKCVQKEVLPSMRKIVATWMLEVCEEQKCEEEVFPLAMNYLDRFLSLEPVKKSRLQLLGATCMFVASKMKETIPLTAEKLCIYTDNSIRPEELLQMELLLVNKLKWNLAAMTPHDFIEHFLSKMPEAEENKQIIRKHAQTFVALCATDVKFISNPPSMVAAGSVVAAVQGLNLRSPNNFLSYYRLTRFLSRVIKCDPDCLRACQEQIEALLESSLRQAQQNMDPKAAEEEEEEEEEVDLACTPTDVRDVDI
Chain of Cyclin-dependent kinase 1/cyclin B1 (P06493 whole entry): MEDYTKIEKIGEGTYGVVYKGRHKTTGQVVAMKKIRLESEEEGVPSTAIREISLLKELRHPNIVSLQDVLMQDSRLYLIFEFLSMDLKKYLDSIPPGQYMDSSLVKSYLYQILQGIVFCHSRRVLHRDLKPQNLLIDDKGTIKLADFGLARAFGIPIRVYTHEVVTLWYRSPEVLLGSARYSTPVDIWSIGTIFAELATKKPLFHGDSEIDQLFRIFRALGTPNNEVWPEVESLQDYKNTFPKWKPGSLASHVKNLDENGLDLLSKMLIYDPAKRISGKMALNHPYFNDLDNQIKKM
Chain of Cyclin-dependent kinase 1/cyclin B1 (P14635 whole entry, further chain): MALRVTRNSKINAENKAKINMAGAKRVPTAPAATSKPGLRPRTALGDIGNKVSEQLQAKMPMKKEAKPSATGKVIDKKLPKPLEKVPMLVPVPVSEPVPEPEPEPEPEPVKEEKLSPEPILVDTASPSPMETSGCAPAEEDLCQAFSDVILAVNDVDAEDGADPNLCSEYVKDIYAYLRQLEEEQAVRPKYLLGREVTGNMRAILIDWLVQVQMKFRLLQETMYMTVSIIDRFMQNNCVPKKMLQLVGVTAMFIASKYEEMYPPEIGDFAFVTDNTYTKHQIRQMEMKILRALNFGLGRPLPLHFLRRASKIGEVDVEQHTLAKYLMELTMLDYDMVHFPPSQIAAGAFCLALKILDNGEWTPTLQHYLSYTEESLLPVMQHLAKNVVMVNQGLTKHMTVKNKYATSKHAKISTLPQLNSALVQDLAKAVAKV

As to `O=C1NC(=O)c2ccc(N3CCOCC3)cc2/C1=C/Nc1ccc(CN2CCCCC2)cc1`, the IC50 in assay [1] and in assay [2] was more than 50 µM each time.
As for `O=C1NC(=O)c2ccccc2/C1=C/Nc1ccc(N2CCOCC2)cc1`, the IC50 in assay [3] and in assay [1] was more than 29 µM each time.
For `CN1CCN(c2ccc(N/C=C3\C(=O)NC(=O)c4ccc(-c5ccoc5)cc43)cc2F)CC1`, the IC50 is 0.9 µM in assay [4], 2.2 µM in assay [5] and more than 50 µM in assay [1].
As to `CN1CCN(c2ccc(N/C=C3\C(=O)NC(=O)c4ccccc43)cc2)CC1`, the IC50 in assay [3] was 4.1 µM; in assay [1], more than 28 µM; in assay [2] it was more than 28 µM.
Regarding `CN1CCN(c2ccc(N/C=C3\C(=O)NC(=O)c4ccc(C(=O)N(C)C)cc43)cc2)CC1`, the IC50 in assay [1] is more than 50 µM.
As to `O=C1NC(=O)c2ccc(-c3cccc(O)c3)cc2/C1=C/Nc1ccc(CN2CCCCC2)cc1`, the IC50 in assay [4] was 2 µM; in assay [5] it was 1.3 µM; in assay [1], more than 50 µM; in assay [2], more than 50 µM.
On to `COc1ccc2c(c1)/C(=C/Nc1ccc(CN3CCCCC3)cc1)C(=O)NC2=O`, for which the IC50 in assay [3] was 2 µM; in assay [1], more than 50 µM; in assay [2], more than 50 µM.
With `O=C1NC(=O)c2ccc(-c3ccc(Cl)cc3)cc2/C1=C/Nc1ccc(CN2CCCCC2)cc1`, the IC50 in assay [1] and in assay [2] was more than 50 µM in each case.
In the case of `O=C1NC(=O)c2ccc(-c3ccsc3)cc2/C1=C/Nc1ccc(CN2CCCCC2)cc1`, the IC50 in assay [3] was 0.13 µM; in assay [4], 3.4 µM; in assay [5], 1 µM; in assay [1], more than 50 µM.
Regarding `O=C1NC(=O)c2ccccc2/C1=C/Nc1ccc(CN2CCCCC2)cc1`, the IC50 is 3.3 µM in assay [3], more than 27 µM in assay [1] and 19.6 µM in assay [2].
The corresponding values for `O=C1NC(=O)c2ccc(-c3cccnc3)cc2/C1=C/Nc1ccc(CN2CCCCC2)cc1` are 0.05 µM, more than 50 µM and more than 50 µM.
Consider `CN1CCN(c2ccc(N/C=C3\C(=O)NC(=O)c4ccc(N5CCCCC5)cc43)cc2)CC1`, for which the IC50 in assay [3] is 1.62 µM; in assay [1] it was more than 50 µM; in assay [2], more than 50 µM.
Turning to `CN1CCN(c2ccc(N/C=C3\C(=O)NC(=O)c4ccc(-c5ccco5)cc43)cc2)CC1`, the IC50 in assay [3] is 0.33 µM; in assay [1] it was more than 50 µM; in assay [2], more than 50 µM.
For `O=C1NC(=O)c2ccc([N+](=O)[O-])cc2/C1=C/Nc1ccc(CN2CCCCC2)cc1`, the figures for the half-maximal inhibitory concentration (IC50) in assay [3], in assay [1] and in assay [2] were 15.1 µM, more than 50 µM and more than 50 µM, respectively.
For the compound `O=C1NC(=O)c2ccc(Cl)cc2/C1=C/Nc1ccc(CN2CCCCC2)cc1`, in assay [1], the IC50 was more than 50 µM.
With `O=C1NC(=O)c2ccc(Nc3ccccc3)cc2/C1=C/Nc1ccc(CN2CCCCC2)cc1`, in assay [1], the IC50 was more than 50 µM.
`CN1CCN(c2ccc(N/C=C3\C(=O)NC(=O)c4ccc(-c5ccsc5)cc43)cc2)CC1`: the IC50 is 0.1 µM in assay [3], 2.3 µM in assay [4], 1.4 µM in assay [5] and more than 50 µM in assay [1].
Consider `O=C1NC(=O)c2ccc(I)cc2/C1=C/Nc1ccc(CN2CCCCC2)cc1`, for which the IC50 in assay [4] was 1 µM; in assay [5], 2.7 µM; in assay [1] it was more than 50 µM.
`COc1ccc(-c2ccc3c(c2)/C(=C/Nc2ccc(CN4CCCCC4)cc2)C(=O)NC3=O)cc1`: the IC50 was 0.13 µM in assay [3], more than 50 µM in assay [1] and more than 50 µM in assay [2].
For `O=C1NC(=O)c2ccc(-c3ccccc3)cc2/C1=C/Nc1ccc(CN2CCCCC2)cc1`, the IC50 in assay [3] was 0.32 µM; in assay [1] it was more than 50 µM; in assay [2] it was more than 50 µM.
Take `CC(=O)Nc1ccc2c(c1)/C(=C/Nc1ccc(CN3CCCCC3)cc1)C(=O)NC2=O`: the IC50 in assay [3] was 3.5 µM; in assay [1], more than 50 µM.
With `O=C1NC(=O)c2ccc(N3CCCCC3)cc2/C1=C/Nc1ccc(CN2CCCCC2)cc1`, the IC50 in assay [3] was 1 µM; in assay [1], more than 50 µM; in assay [2], more than 50 µM.
Regarding `CN1CCN(c2ccc(N/C=C3\C(=O)NC(=O)c4ccc(-c5ccoc5)cc43)cc2)CC1`, the values for the IC50 in assay [4], in assay [5] and in assay [1] were 1.1 µM, 1.2 µM and more than 50 µM, respectively.
With `CN1CCN(c2ccc(N/C=C3\C(=O)NC(=O)c4cc(Br)ccc43)cc2)CC1`, the results for the IC50 in assay [3] and in assay [1] were 12.1 µM and more than 50 µM, respectively.
Consider `CC(=O)Nc1ccc2c(c1)/C(=C/Nc1ccc(N3CCN(C)CC3)cc1)C(=O)NC2=O`, for which the IC50 was 11 µM in assay [3], 13.8 µM in assay [1] and more than 50 µM in assay [2].
The corresponding values for `CN1CCN(c2ccc(N/C=C3\C(=O)NC(=O)c4ccc(-c5ccccc5)cc43)cc2)CC1` are 0.39 µM, more than 50 µM and more than 50 µM.
Turning to `O=C1NC(=O)c2ccccc2/C1=C/Nc1ccc(CN2CCOCC2)cc1`, the values for the IC50 in assay [3], in assay [1] and in assay [2] were 10 µM, more than 27 µM and 21 µM, respectively.
Regarding `O=C1NC(=O)c2ccc(-c3ccc(F)cc3)cc2/C1=C/Nc1ccc(CN2CCCCC2)cc1`, the IC50 in assay [4] was 0.55 µM; in assay [5] it was 1 µM; in assay [1], more than 50 µM; in assay [2], more than 50 µM.
On to `CN1CCN(c2ncc(N/C=C3\C(=O)NC(=O)c4ccc(-c5ccoc5)cc43)cn2)CC1`, for which the values for the IC50 in assay [4] and in assay [5] were 3.2 µM and 1.1 µM, respectively.
On to `CN1CCN(c2ccc(N/C=C3\C(=O)NC(=O)c4ccc(-c5ccoc5)cc43)nn2)CC1`, for which the IC50 is 4.5 µM in assay [4] and 1.9 µM in assay [5].
For `CN1CCN(c2ccc(N/C=C3\C(=O)NC(=O)c4ccc(-c5ccoc5)cc43)cn2)CC1`, the IC50 in assay [3] was 0.11 µM; in assay [1] it was more than 50 µM; in assay [2] it was more than 50 µM.
In the case of `O=C1NC(=O)c2ccc(-c3ccc(Oc4ccccc4)cc3)cc2/C1=C\Nc1ccc(CN2CCCCC2)cc1`, the IC50 in assay [3], in assay [1] and in assay [2] was more than 50 µM each time.
Turning to `O=C1NC(=O)c2ccc(-c3ccoc3)cc2/C1=C/Nc1ccc(CN2CCCCC2)cc1`, the IC50 in assay [1] and in assay [2] was more than 50 µM throughout.
Consider `CN1CCN(c2ccc(N/C=C3\C(=O)NC(=O)c4ccc(-c5ccoc5)cc43)nc2)CC1`, for which the IC50 in assay [1] was more than 50 µM.
Consider `CN1CCN(c2cnc(N/C=C3\C(=O)NC(=O)c4ccc(-c5ccoc5)cc43)cn2)CC1`, for which the figures for the IC50 in assay [3], in assay [4] and in assay [5] were 1.25 µM, 1.3 µM and 0.95 µM, respectively.
Turning to `O=C1NC(=O)c2ccc(-c3ccc(O)cc3)cc2/C1=C/Nc1ccc(CN2CCCCC2)cc1`, the IC50 in assay [1] and in assay [2] was more than 50 µM each time.
`CN1CCN(c2ccc(N/C=C3\C(=O)NC(=O)c4ccc(/C=C/c5ccccc5)cc43)cc2)CC1`: in assay [3], the half-maximal inhibitory concentration (IC50) came out at 14.3 µM.
As for `COc1cccc(-c2ccc3c(c2)/C(=C/Nc2ccc(CN4CCCCC4)cc2)C(=O)NC3=O)c1`, the IC50 in assay [1] is more than 50 µM.
For the compound `CN(C)C(=O)c1ccc2c(c1)/C(=C/Nc1ccc(CN3CCCCC3)cc1)C(=O)NC2=O`, the results for the IC50 in assay [1] and in assay [2] were more than 50 µM and 39.8 µM, respectively.
As for `CN1CCN(c2ccc3c(c2)/C(=C/Nc2ccc(CN4CCCCC4)cc2)C(=O)NC3=O)CC1`, the IC50 in assay [1] and in assay [2] was more than 50 µM each time.
